Earlier results in US20060122095A1, “Mucus formulation for mucosal surfaces and uses thereof” (priority 2002, published 2006).
“Also recorded” adds a separate entry of the source.

Legend:
HIV-1 [1] = tested on: HIV-1
[2] = tested on: different cell types in culture; conditions: even at extremely high concentrations
[3] = multiple routes of administration, different species of animals
HIV-1 [4] = conditions: after complete washing away of unbound drug
HIV-1 [5] = conditions: previous evaluations of UC-781 formulations

CC(C)=CCOc1cc(NC(=S)c2ccoc2C)ccc1Cl [UC-781, N-[4-chloro-3-(3-methyl-2-butenyloxy)phenyl]]
solubility in water: limited solubility in water | effectiveness against strains of HIV-1 that encode known NNRTI resistance mutations (HIV-1 [1]; compared with wild type isolates): equally effective | HIV-1 inhibition effect, inactivating concentration (HIV-1 [1]; primary wild type isolates of clades A through G, in vitro): nanomolar range; also recorded: nanomolar concentrations | toxic effect on cells in culture [2]: no toxic effect | bioavailability [3]: poor bioavailability | resistance of pre-treated cells to infection (memory effect) (HIV-1 [4]): remained resistant to infection for several days | activity in explant model (HIV-1 [5]): remained active
